The text below walks through data of patent US8507555B2, “Non-toxic anti-cancer drug combining ascorbate, magnesium and a naphthoquinone” (Summa Health System, priority 2006, dated 2013).

Where two headings read alike, the source gives them in different places. Where only a bound is given, the exact number is not on record here.

Test [1] deals with DU145 Prostate Cancer Cells. Kind of test: MTT cytotoxicity assay, DU145 prostate cancer cells. The format is cell-based, human. The settings on record: read-out: CD50, vitamin alone. Here is the method:
(§1) The effect of the new Mg-containing formulation, which combined MgVC2+VK3, on proliferation and survival of cancer cells was evaluated was then evaluated using the MTT assay, a […] assay that measures the number of viable cells in a cell sample. 3-[4,5-dimethylthiazol-2-yl]-2,5-diphenyltetrazolium bromide (MTT) is a chromogen that is converted to a measurable colored product by viable cells. Therefore, the amount of color measured is proportional to the number of viable cells. This assay has been used widely to assess the cytotoxicity and selectivity of anti-cancer drugs because MTT is suitable for rapid toxicity characterization of new drug candidates and formulations. One way of assigning a cytotoxic activity to an agent is by converting the raw date to a CD50 value, which represent the amount (dose) of the agent needed to achieve 50% of the maximal cytotoxic activity. A lower CD50 indicates a greater cytotoxic activity (as a lower amount of the agent is needed to achieve a fixed level of cytotoxicity). Two agents can be compared by examining the fold-increase or decrease in their CD50 values.
(§2) To evaluate the antitumor activity at a MgVC2:VK3 ratio of […], MgVC was combined with VK3 at a MgVC2:VK3 ratio of 100:1 (which is effectively a VC:VK3 ratio of 200:1). The NaVC:K3 formulation was prepared at a ratio of 200:1.
The antitumor activity of the two formulations against a human androgen-independent prostate cancer cell line DU145 was evaluated in the MTT assay.
On the technique in general: Tetrazolium assays rely on reduction of a dye to a coloured formazan, in cell work by metabolically active cells.

Another test relates to HS68 Fibroblasts. Briefly: MTT cytotoxicity assay, HS68 fibroblasts. As to conditions: read-out: CD50, vitamin alone. The format is cell-based. Here is the method: as §1, §2
This indicates a selectivity for tumor vs. “normal” cells.

A further test deals with DNase I. As to conditions: tumor cells; cited from earlier work.
Where [2] appears, read: Homo sapiens, DU-145, 24 h, 1 day.
The mark [3] stands for this setting: Homo sapiens, DU-145, 48 h, 2 days.
[4] abbreviates: Homo sapiens, DU-145, 72 h, 3 days.

Regarding `CC1=CC(=O)c2ccccc2C1=O` [VK3, 2-methyl-1,4-naphthoquinone], the IC50 in test [1] (setting [2]) is 37.5 µM; in test [1] (setting [3]), 37.5 µM; in test [1] (setting [4]), 37.5 µM; with HS68 Fibroblasts (Homo sapiens, 24 h, 1 day), 18.7 µM; with HS68 Fibroblasts (Homo sapiens, 48 h, 2 days) it was 19 µM; in the test on HS68 Fibroblasts (Homo sapiens, 72 h, 3 days), 18.7 µM. Moreover, the “time of exposure to re-expression of latent DNase I activity” value with DNase I was at most 15 min.

`O=C1O[C@H]([C@@H](O)CO)C(O)=C1O` [NaVC, sodium ascorbate]: the IC50 in test [1] (setting [2]) is 3070 µM; in test [1] (setting [3]), 1480 µM; in test [1] (setting [4]) it was 994 µM; with HS68 Fibroblasts (Homo sapiens, 24 h, 1 day), 1470 µM; in the test with HS68 Fibroblasts (Homo sapiens, 48 h, 2 days) it was 1240 µM; in the test with HS68 Fibroblasts (Homo sapiens, 72 h, 3 days) it was 1180 µM.

With magnesium ascorbate [MgVC2], the IC50 was determined as 2510 µM in test [1] (1 day); 1150 µM in test [1] (2 days); 432 µM in test [1] (3 days); 1660 µM with HS68 Fibroblasts (1 day); 1750 µM in the test with HS68 Fibroblasts (2 days); 1500 µM with HS68 Fibroblasts (3 days).
